# Reference: US8975264B2, “Compound acting as a cannabinoid receptor-1 inhibitor” (Amorepacific Corporation, priority 2010, dated 2015)
# Target: human CB1 (cannabinoid receptor 1) (Homo sapiens, UniProt P21554)
# Experiment: CB1 receptor inhibition effect: calcium ion influx assay (Fluo-4 NW) in Chem-1 cells after 1 μM R-(+)-WIN55212-2
# Assay type: cell-based
# Conditions: calcium ion influx in Chem-1 cells expressing human CB1, 1 μM R-(+)-WIN55212-2
# Description: When cells in which the cannabinoid receptor 1 (CB1) is stably expressed are treated with a CB1 receptor agonist, the CB1 receptor is activated and influx of calcium ions into the cells increases. CB1 receptor inhibition effect of a test compound can be evaluated by measuring the degree of calcium influx inhibition after treating with the test compound.
# First, Chem-1 cells (Chemicon International, #HTS019C) in which human CB1 cDNA is expressed stably were seeded onto a 96-well cell culture plate at a density of ˜50,000 cells/well and incubated overnight in a 5% CO2 incubator at 37° C. The next day, the culture medium was discarded and the cells were cautiously washed once using an assay buffer (HBSS containing 20 mM HEPES and 2.5 mM probenecid) with 200 μL/well. Calcium ion influx was measured using an assay kit (Fluo-4 NW calcium assay kit: Molecular Probes™, #F36206) according to the manufacturer's instructions. The compounds of Examples of desired concentration to be measured were comprised to 0.5% DMSO. For control, only 0.5% DMSO was used without the compounds of Examples. Reaction time was 10 minutes. After treating the Chem-1 cells stably expressing the CB1 receptor with 1 μM R-(+)-WIN55212-2 (Sigma, #W102), a CB1 receptor agonist, calcium ion (Ca^2+) flux induced thereby was measured for 80 seconds using Flex Station 3 (Molecular Device, USA).
# The difference in calcium ion concentration of the cells treated with the compounds of Examples or those treated with 1 μM R-(+)-WIN55212-2 was obtained from the difference of the maximum and minimum values during the 80 seconds. Then, % inhibition of the compounds for the CB1 receptor was calculated using the following equation. % inhibition={1−(ΔRFUcompound−ΔRFUBlank)/(ΔRFUControl−ΔRFUBlank)}×100 [Equation]
# ΔRFU: maximum relative fluorescence units−minimum relative fluorescence units
# ΔRFUCompound: difference in maximum and minimum RFUs in the well where the compounds of Examples dissolved in DMSO to a final concentration of 0.5% and 1 μM R-(+)-WIN55212-2 dissolved in DMSO to a final concentration of 0.5% were added
# ΔRFUBlank: difference in maximum and minimum RFUs in the well to which only 1% DMSO was added
# ΔRFUControl: difference in maximum and minimum RFUs in the well where 0.5% DMSO and 1 μM R-(+)-WIN55212-2 dissolved in DMSO to a final concentration of 0.5% were added
# human CB1 (cannabinoid receptor 1), sequence (P21554 whole entry): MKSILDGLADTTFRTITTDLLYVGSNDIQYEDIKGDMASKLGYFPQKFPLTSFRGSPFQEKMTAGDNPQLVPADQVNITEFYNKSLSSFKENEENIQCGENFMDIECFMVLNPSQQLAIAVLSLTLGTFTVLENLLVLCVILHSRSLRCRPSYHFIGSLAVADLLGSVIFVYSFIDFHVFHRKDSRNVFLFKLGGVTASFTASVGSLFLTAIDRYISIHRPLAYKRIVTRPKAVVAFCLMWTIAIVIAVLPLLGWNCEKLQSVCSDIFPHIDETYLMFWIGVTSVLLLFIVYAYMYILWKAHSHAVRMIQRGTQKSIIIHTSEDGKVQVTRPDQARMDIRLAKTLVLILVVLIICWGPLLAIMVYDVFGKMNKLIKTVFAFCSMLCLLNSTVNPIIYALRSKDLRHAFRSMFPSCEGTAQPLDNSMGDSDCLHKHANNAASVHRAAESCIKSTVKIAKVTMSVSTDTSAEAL
row,IC50,Compound
1,94 nM,Cc1nn2c(-c3ccc(F)cc3)cc(N3CCC[C@H]3CO)nc2c1-c1ccc(C(F)F)cc1 [Example 67]
2,450 nM,"Cc1ccc(-c2cnn3c(-c4ccc(F)cc4)cc(N4CCC[C@H]4CO)nc23)cc1 [Example 269, (S)-(1-(3-(4-methylphenyl)-7-(4-fluorophenyl)-pyrazolo[1,5-a]pyrimidin-5-yl)pyrrolidin-2-yl)methanol]"
3,330 nM,C=Cc1ccc(-c2c(C)nn3c(-c4cccc(C)c4)cc(N4CCC[C@H]4CO)nc23)cc1 [Example 165]
4,410 nM,Cc1ccc(-c2cc(N3CCC[C@H]3CO)nc3c(-c4ccc(C(F)(F)F)cc4)c(C)nn23)cc1 [Example 180]
5,230 nM,CCc1ccc(-c2c(C)nn3c(-c4ccc(F)cc4)cc(N4CCC[C@H]4CO)nc23)cc1 [Example 70]
6,5 nM,COCc1nn2c(-c3cccc(F)c3)cc(N3CCC[C@H]3CO)nc2c1-c1ccc(OC)cc1 [Example 223]
7,160 nM,CCc1ccc(-c2c(C)nn3c(-c4cccc(F)c4)cc(N4CCC[C@H]4CO)nc23)cc1 [Example 116]
8,120 nM,Cc1nn2c(-c3cccc(C(F)(F)F)c3)cc(N3CCC[C@H]3CO)nc2c1-c1ccc(F)cc1F [Example 135]
9,140 nM,"OC[C@@H]1CCCN1c1cc(-c2ccc(F)cc2)n2nc(C3CC3)c(-c3ccc(Cl)cc3)c2n1 [Example 196, (S)-(1-(3-(4-chlorophenyl)-7-(4-fluorophenyl)-2-cyclopropylpyrazolo[1,5-a]pyrimidin-5-yl)pyrrolidin-2-yl)methanol]"
10,350 nM,Cc1nn2c(-c3ccc(F)cc3)cc(N3CCC[C@H]3CO)nc2c1-c1ccc(F)cc1F [Example 77]
11,470 nM,Cc1nn2c(-c3ccc(F)cc3)cc(N3CCC[C@H]3CO)nc2c1-c1ccc(OC(C)C)cc1 [Example 85]
12,260 nM,Cc1cccc(-c2cc(N3CCC[C@H]3CO)nc3c(-c4ccc(C(F)(F)F)cc4)c(C)nn23)c1 [Example 163]
13,210 nM,Cc1ccc(-c2c(C)nn3c(-c4ccc(F)c(Cl)c4)cc(N4CCC[C@H]4CO)nc23)cc1F [Example 185]
14,240 nM,CCOc1ccc(-c2c(C)nn3c(-c4cccc(Cl)c4)cc(N4CCC[C@H]4CO)nc23)cc1 [Example 171]
15,90 nM,Cc1ccc(-c2c(C)nn3c(-c4cccc(C(F)(F)F)c4)cc(N4CCC[C@H]4CO)nc23)cc1F [Example 137]
16,210 nM,CCc1cccc(-c2cc(N3CCC[C@H]3CO)nc3c(-c4ccc(OC)cc4)c(C)nn23)c1 [Example 43]
17,450 nM,Cc1cccc(-c2cc(N3CCC[C@H]3CO)nc3c(-c4ccc(OC(F)(F)F)cc4)c(C)nn23)c1 [Example 168]
18,77 nM,Cc1nn2c(-c3cccc(F)c3)cc(N3CCC[C@H]3CO)nc2c1-c1ccc(C(F)F)cc1 [Example 114]
19,7 nM,CCOCc1nn2c(-c3cccc(C(F)(F)F)c3)cc(N(C)CCO)nc2c1-c1ccc(Cl)cc1 [Example 244]
20,250 nM,Cc1cccc(-c2cc(N3CCC[C@H]3CO)nc3c(-c4ccc(F)cc4)c(C)nn23)c1 [Example 167]
21,51 nM,Cc1nn2c(-c3ccc(F)c(F)c3)cc(N3CCC[C@H]3CO)nc2c1-c1ccc(Cl)cc1 [Example 21]
22,140 nM,"COc1ccc(-c2c(C)nn3c(-c4ccccc4)cc(N4CCC[C@H]4CO)nc23)cc1 [Example 37, (S)-(1-(3-(4-methoxyphenyl)-7-phenyl-2-methylpyrazolo[1,5-a]pyrimidin-5-yl)pyrrolidin-2-yl)methanol]"
23,130 nM,"CCOc1ccc(-c2c(C)nn3c(-c4ccccc4)cc(N4CCC[C@H]4CO)nc23)cc1 [Example 47, (S)-(1-(3-(4-ethoxyphenyl)-7-phenyl-2-methylpyrazolo[1,5-a]pyrimidin-5-yl)pyrrolidin-2-yl)methanol]"
24,90 nM,"CCOCc1nn2c(-c3ccc(F)cc3)cc(NCCO)nc2c1-c1ccc(C)cc1 [Example 263, 2-[2-ethoxymethyl-7-(4-fluorophenyl)-3-(4-methylphenyl)-pyrazolo[1,5-a]pyrimidin-5-yl-amino]ethanol]"
25,160 nM,COc1ccc(-c2c(C)nn3c(-c4ccc(Cl)cc4)cc(N4CCC[C@H]4CO)nc23)cc1 [Example 44]
26,170 nM,CSc1ccc(-c2c(C)nn3c(-c4ccc(F)cc4)cc(N4CCC[C@H]4CO)nc23)cc1 [Example 68]
27,690 nM,Cc1ccc(-c2cnn3c(-c4ccc(F)c(F)c4)cc(N4CCC[C@H]4CO)nc23)cc1 [Example 272]
28,14 nM,COCc1nn2c(-c3cccc(C(F)(F)F)c3)cc(N(C)CCO)nc2c1-c1ccc(OC)cc1 [Example 257]

row,IC50,Compound
1,6 nM,CCOCc1nn2c(-c3cccc(C(F)(F)F)c3)cc(N3CCC[C@H]3CO)nc2c1-c1ccc(C)cc1 [Example 204]
2,220 nM,COc1cccc(-c2cc(N3CCC[C@H]3CO)nc3c(-c4ccc(OC)c(F)c4)c(C)nn23)c1 [Example 186]
3,160 nM,Cc1cc(-c2c(C)nn3c(-c4ccc(F)cc4)cc(N4CCC[C@H]4CO)nc23)ccc1F [Example 101]
4,160 nM,Cc1ccc(-c2c(C)nn3c(-c4ccc(C)cc4)cc(N4CCC[C@H]4CO)nc23)cc1 [Example 30]
5,220 nM,Cc1nn2c(-c3ccc(F)cc3)cc(N3CCC[C@H]3CO)nc2c1-c1ccc(C(F)(F)F)cc1 [Example 69]
6,90 nM,CCc1cccc(-c2cc(N3CCC[C@H]3CO)nc3c(-c4ccc(Cl)cc4)c(C)nn23)c1 [Example 14]
7,96 nM,Cc1nn2c(-c3ccccc3)cc(N3CCC[C@H]3CO)nc2c1-c1ccc(Cl)cc1 [Example 5]
8,18 nM,COCc1nn2c(-c3cccc(Cl)c3)cc(N3CCC[C@H]3CO)nc2c1-c1ccc(OC)cc1 [Example 230]
9,10 nM,CCOCc1nn2c(-c3cccc(C(F)(F)F)c3)cc(N(C)CCO)nc2c1-c1ccc(C)cc1 [Example 241]
10,210 nM,CCc1cccc(-c2cc(N3CCC[C@H]3CO)nc3c(-c4ccc5c(c4)OCO5)c(C)nn23)c1 [Example 60]
11,60 nM,COc1ccc(-c2c(C)nn3c(-c4cccc(F)c4)cc(N4CCC[C@H]4CO)nc23)cc1 [Example 111]
12,140 nM,Cc1nn2c(-c3cccc(F)c3)cc(N3CCC[C@H]3CO)nc2c1-c1ccc(C(F)(F)F)cc1 [Example 115]
13,22 nM,COCc1nn2c(-c3cccc(C#N)c3)cc(N3CCC[C@H]3CO)nc2c1-c1ccc(OC)cc1 [Example 228]
14,120 nM,COc1cccc(-c2cc(N3CCC[C@H]3CO)nc3c(-c4ccc(C(F)F)cc4)c(C)nn23)c1 [Example 178]
15,120 nM,Cc1ccc(-c2c(C)nn3c(-c4ccccc4)cc(N4CCC[C@H]4CO)nc23)cc1 [Example 28]
16,5 nM,CCOCc1nn2c(-c3cccc(F)c3)cc(N3CCC[C@H]3CO)nc2c1-c1ccc(C)cc1 [Example 202]
17,210 nM,COc1ccc(-c2c(C)nn3c(-c4cccc(C(F)(F)F)c4)cc(N4CCC[C@H]4CO)nc23)cc1F [Example 138]
18,66 nM,Cc1nn2c(-c3cccc(C(F)(F)F)c3)cc(N3CCC[C@H]3CO)nc2c1-c1ccc(C(F)(F)F)cc1 [Example 128]
19,200 nM,CCCOc1ccc(-c2c(C)nn3c(-c4ccc(C)cc4)cc(N4CCC[C@H]4CO)nc23)cc1 [Example 194]
20,30 nM,CCOCc1nn2c(-c3cccc(OC)c3)cc(N3CCC[C@H]3CO)nc2c1-c1ccc(C)cc1 [Example 203]
21,360 nM,Cc1nn2c(-c3ccccc3F)cc(N3CCC[C@H]3CO)nc2c1-c1ccc(Cl)cc1 [Example 4]
22,300 nM,CCOCc1nn2c(-c3cccc(OC)c3)cc(NCCO)nc2c1-c1ccc2c(c1)OCO2 [Example 268]
23,140 nM,Cc1nn2c(-c3ccc(F)cc3)cc(N3CCC[C@H]3CO)nc2c1-c1ccc2c(c1)OCO2 [Example 66]
24,130 nM,COc1cccc(-c2cc(N3CCC[C@H]3CO)nc3c(-c4ccc(C)c(F)c4)c(C)nn23)c1 [Example 183]
25,80 nM,CCOCc1nn2c(-c3cccc(F)c3)cc(N3CCC[C@H]3CO)nc2c1-c1ccc2c(c1)OCO2 [Example 214]
26,130 nM,CCOc1ccc(-c2c(C)nn3c(-c4cccc(F)c4)cc(N4CCC[C@H]4CO)nc23)cc1 [Example 112]
27,270 nM,Cc1ccc(-c2c(C)nn3c(-c4cccc(Cl)c4)cc(N4CCC[C@H]4CO)nc23)cc1F [Example 176]

# Same assay, conditions: compound at 3 μM; calcium ion influx in Chem-1 cells expressing human CB1, 1 μM R-(+)-WIN55212-2
row,inhibition at 3 µM,Compound
1,~5%,Cc1nn2c(-c3ccccc3)cc(N3CCC[C@@H]3CO)nc2c1-c1ccc(Cl)cc1 [Example 305]
